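96-well plates; 48 h exposure; 5 concentrations. Endpoints by linear interpolation between flanking doses. Not reached: highest tested concentration assigned. TGI is the concentration that stops growth completely.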

Common to all, as to assay: NCI anticancer screen, dose series, 48 h
For assay [1], the system named is CAKI-1 renal.
Assay [2] has as its system CCRF-CEM leukemia.
In assay [3] the test system is EKVX NSCLC.
The test system of assay [4] is MCF7 breast.
Assay [5] deals with MDA-MB-231 breast.
In assay [6] the test system is PC-3 prostate.
Assay [7] concerns RPMI-8226 leukemia.
The subject of assay [8] is RXF 393 renal.
For assay [9], the system named is SF-268 CNS.
The test system of assay [10] is SK-MEL-2 melanoma.
Assay [11] has as its system SNB-19 CNS.
Assay [12] deals with SR leukemia.
The test system of assay [13] is UACC-257 melanoma.
In assay [14] the test system is UACC-62 melanoma.
In assay [15] the test system is HCC-2998 colon.
Assay [16] deals with HOP-92 NSCLC.
Assay [17] has as its system OVCAR-4 ovarian.
Assay [18] has as its system SNB-75 CNS.

Regarding `O=C(c1cccs1)N(C(=S)OCc1ccccn1)c1ccccc1`, the TGI is above 100 µM in assay [1]; above 100 µM in assay [2]; 70 µM in [3]; above 100 µM in assay [4]; above 100 µM in assay [5]; above 100 µM in [6]. The TGI in [7], in [8], in [9], in assay [10], in assay [11] and in [12] was above 100 µM each time. For the same molecule, the TGI in assay [13] and in assay [14] was above 100 µM throughout.
On to `O=[N+]([O-])/C(Cl)=C(\Sc1ccccc1)C(Cl)=C(Cl)Cl`, for which the TGI in assay [1] worked out at 3.88 µM; in [2], 0.667 µM; in [3], 3.9 µM; in assay [15] it was 3.84 µM; in assay [16], 3.4 µM; in [4], 1.1 µM. The TGI worked out at 0.628 µM in [5]; 3.65 µM in assay [17]; 4.12 µM in assay [6]; 2.6 µM in assay [8]; 3.05 µM in assay [9]; 4.26 µM in assay [11]. Also, the TGI is 0.734 µM in assay [12], 0.994 µM in assay [13] and 1.98 µM in assay [14].
With `COc1ccc(-n2c(C)nc3ccc(N=Cc4ccccc4)cc3c2=O)cc1`, the TGI in [1], in assay [3], in [15], in assay [4], in assay [5] and in assay [17] was above 100 µM in each case. In addition, the TGI in assay [6], in assay [7], in assay [8], in assay [9], in assay [11] and in assay [18] was above 100 µM in each case. Also, the TGI in [12], in [13] and in [14] was above 100 µM each time.
Take `Nc1nonc1-c1noc(-c2nonc2N)[n+]1[O-]`: the TGI in [1] is 51.6 µM; in assay [2], 32.8 µM; in assay [3], 82.8 µM; in [15], above 100 µM; in [16], above 100 µM; in [4], above 100 µM. For the same molecule, the TGI is above 100 µM in assay [5]; above 100 µM in assay [17]; above 100 µM in [6]; above 100 µM in assay [7]; 51.1 µM in assay [8]; above 100 µM in assay [9]. Moreover, the TGI in assay [10], in [11], in [12], in assay [13] and in assay [14] was above 100 µM each time.
`c1csc(-c2cc(-c3ccsc3)c(-c3cccs3)s2)c1`: the TGI in assay [1] was above 100 µM; in assay [2] it was above 100 µM; in assay [3], above 100 µM; in assay [15], above 100 µM; in [16], above 100 µM; in assay [4], 89.8 µM. The TGI in [5], in assay [17], in assay [6], in assay [8], in assay [9] and in [11] was above 100 µM in each case. Further, the TGI in [18], in [12], in assay [13] and in [14] was above 100 µM in each case.
In the case of `CCOC(=O)C1C(=O)CC(C)(O)C(C(=O)OCC)C1c1ccc(O)c(OC)c1` (stereo unspecified), the TGI in [1], in [2], in assay [3], in assay [15], in [16] and in assay [4] was above 100 µM in each case. The TGI in assay [5], in [17], in assay [6], in [8], in assay [9] and in [10] was above 100 µM in each case. The TGI in assay [11], in assay [18], in [12], in assay [13] and in [14] was above 100 µM throughout.
With `COc1cc(C(CN)N(C)C)cc(OC)c1OC` (stereo unspecified), the TGI in [1], in assay [2], in assay [3], in assay [15], in [16] and in assay [4] was above 100 µM throughout. The TGI in [5], in assay [17], in assay [6], in assay [8], in [9] and in assay [11] was above 100 µM throughout. The TGI in assay [12], in assay [13] and in [14] was above 100 µM in each case.
`O=C(Nc1ccccc1)N1CC(CN2CCN(c3ccccc3)CC2)OC1=O` (stereo unspecified): the TGI in [1], in assay [2], in assay [3], in assay [15], in assay [16] and in [4] was above 100 µM in each case. The TGI in assay [5], in [17], in [6], in assay [7], in assay [8] and in [9] was above 100 µM throughout. For the same molecule, the TGI in assay [10], in [11], in assay [12], in [13] and in [14] was above 100 µM each time.

(Values after PubChem BioAssay (NCI).)
